Results reported in patent publication US10029022B2, “Nuclear medicine diagnostic imaging agent” (Kyoto University, priority 2015, dated 2018).
One block for each compound: values may come before it.

How the values were obtained:
[1] = biological target: T1, EGFR (L858R) (Homo sapiens, UniProt P00533, L858R); assay: EGFR Tyrosine Kinase Inhibiting Activity Measurement 1 (ADP-Glo), L858R; format: biochemical; conditions: 1 h incubation with ATP/Poly(Glu, Tyr); >10: <50% enzyme inhibition at 10 μM
T1 construct: purchased Promega V5322
T1 sequence (P00533 25-1210 L858R): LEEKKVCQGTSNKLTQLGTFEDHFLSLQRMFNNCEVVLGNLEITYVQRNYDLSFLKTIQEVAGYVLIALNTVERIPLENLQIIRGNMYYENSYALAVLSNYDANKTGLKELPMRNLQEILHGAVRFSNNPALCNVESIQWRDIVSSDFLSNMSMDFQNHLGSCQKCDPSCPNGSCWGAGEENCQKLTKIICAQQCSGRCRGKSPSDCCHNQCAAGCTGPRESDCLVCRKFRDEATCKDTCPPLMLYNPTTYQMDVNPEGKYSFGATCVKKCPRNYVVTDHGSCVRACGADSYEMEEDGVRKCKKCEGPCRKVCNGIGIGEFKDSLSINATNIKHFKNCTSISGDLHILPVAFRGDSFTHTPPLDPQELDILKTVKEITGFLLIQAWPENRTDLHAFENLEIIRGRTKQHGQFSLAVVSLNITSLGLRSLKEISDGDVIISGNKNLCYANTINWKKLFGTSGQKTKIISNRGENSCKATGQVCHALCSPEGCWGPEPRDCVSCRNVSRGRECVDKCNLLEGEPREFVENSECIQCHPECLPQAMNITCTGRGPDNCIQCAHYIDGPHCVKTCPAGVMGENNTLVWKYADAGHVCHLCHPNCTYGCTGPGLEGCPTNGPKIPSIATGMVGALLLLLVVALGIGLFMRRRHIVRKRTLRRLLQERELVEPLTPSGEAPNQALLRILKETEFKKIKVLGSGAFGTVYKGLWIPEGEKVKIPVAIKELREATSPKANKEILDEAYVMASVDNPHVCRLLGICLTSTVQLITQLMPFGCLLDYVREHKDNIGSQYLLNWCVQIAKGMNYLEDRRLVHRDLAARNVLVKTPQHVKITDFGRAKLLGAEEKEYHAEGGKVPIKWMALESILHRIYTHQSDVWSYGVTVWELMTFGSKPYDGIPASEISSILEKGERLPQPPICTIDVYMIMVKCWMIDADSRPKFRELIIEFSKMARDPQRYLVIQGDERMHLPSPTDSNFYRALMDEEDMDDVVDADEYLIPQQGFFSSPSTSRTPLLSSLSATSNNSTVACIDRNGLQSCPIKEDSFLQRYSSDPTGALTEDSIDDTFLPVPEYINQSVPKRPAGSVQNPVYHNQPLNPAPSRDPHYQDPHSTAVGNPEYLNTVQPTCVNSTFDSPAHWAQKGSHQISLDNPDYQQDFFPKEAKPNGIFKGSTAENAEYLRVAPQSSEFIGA
Procedure: (§1) The measurement was carried out according to the Promega protocol applications guide. That is, a buffer solution (40 mM Tris-HCl, pH 7.5, 20 mM MgCl2, 50 μM DTT and 0.1 mg/mL BSA) was used as a dilute solution. The concentration of each compound started at 100 μM (the final concentration, including 1% DMSO) with 5-fold dilutions with the buffer solution. Thus, ten concentrations of each compound were prepared. The initial concentration of PD158780 alone was set at 10 μM (the final concentration, including 1% DMSO) but it was prepared in the same manner as the compound group. Then, 2 μL of each concentration of each compound thus obtained was added to each well of a 384-well plate. Furthermore, 4 μL (20 ng) of an EGFR Kinase Buffer that came with each EGFR Kinase Enzyme System was added to each well, which then was incubated at room temperature for ten minutes. Subsequently, 4 μL of mixed solution of ATP (10 μM) and Poly(Glu, Tyr) (2 μg) substrate was added to each well, which then was incubated at room temperature for one hour. Then, 10 μL of ADP-Glo™ Reagent (ADP-Glo™ Kinase Assay, Promega) was added to each well, which then was reacted at room temperature for 40 minutes. Furthermore, 20 μL of Kinase Detection Reagent (ADP-Glo™ Kinase Assay, Promega) was added to each well, which then was reacted at room temperature for one hour. […] From the data thus obtained, dose-response curves and IC50 were calculated using GraphPad Prism 5 (GraphPad Software, Inc.).

[2] = biological target: T2, L858R/T790M-mutated EGFR (Homo sapiens, UniProt P00533, L858R/T790M); assay: EGFR Tyrosine Kinase Inhibiting Activity Measurement 2, L858R/T790M; format: biochemical
T2 construct: purchased Promega V5324
Procedure: as §1, with “minutes.” for “minutes. Furthermore, 20 μL of Kinase Detection Reagent (ADP-Glo™ Kinase Assay, Promega) was added to each well, which then was reacted at room temperature for one hour.”

[3] = biological target: T3, EGFR (EGFR Kinase Enzyme System, WT) (Homo sapiens, UniProt P00533); assay: EGFR Tyrosine Kinase Inhibiting Activity Measurement 1 (ADP-Glo), WT; format: biochemical; conditions: for IC50: 1 h incubation with ATP/Poly(Glu, Tyr), >10: <50% enzyme inhibition at 10 μM
T3 construct: purchased Promega V3831
T3 sequence (P00533 25-1210): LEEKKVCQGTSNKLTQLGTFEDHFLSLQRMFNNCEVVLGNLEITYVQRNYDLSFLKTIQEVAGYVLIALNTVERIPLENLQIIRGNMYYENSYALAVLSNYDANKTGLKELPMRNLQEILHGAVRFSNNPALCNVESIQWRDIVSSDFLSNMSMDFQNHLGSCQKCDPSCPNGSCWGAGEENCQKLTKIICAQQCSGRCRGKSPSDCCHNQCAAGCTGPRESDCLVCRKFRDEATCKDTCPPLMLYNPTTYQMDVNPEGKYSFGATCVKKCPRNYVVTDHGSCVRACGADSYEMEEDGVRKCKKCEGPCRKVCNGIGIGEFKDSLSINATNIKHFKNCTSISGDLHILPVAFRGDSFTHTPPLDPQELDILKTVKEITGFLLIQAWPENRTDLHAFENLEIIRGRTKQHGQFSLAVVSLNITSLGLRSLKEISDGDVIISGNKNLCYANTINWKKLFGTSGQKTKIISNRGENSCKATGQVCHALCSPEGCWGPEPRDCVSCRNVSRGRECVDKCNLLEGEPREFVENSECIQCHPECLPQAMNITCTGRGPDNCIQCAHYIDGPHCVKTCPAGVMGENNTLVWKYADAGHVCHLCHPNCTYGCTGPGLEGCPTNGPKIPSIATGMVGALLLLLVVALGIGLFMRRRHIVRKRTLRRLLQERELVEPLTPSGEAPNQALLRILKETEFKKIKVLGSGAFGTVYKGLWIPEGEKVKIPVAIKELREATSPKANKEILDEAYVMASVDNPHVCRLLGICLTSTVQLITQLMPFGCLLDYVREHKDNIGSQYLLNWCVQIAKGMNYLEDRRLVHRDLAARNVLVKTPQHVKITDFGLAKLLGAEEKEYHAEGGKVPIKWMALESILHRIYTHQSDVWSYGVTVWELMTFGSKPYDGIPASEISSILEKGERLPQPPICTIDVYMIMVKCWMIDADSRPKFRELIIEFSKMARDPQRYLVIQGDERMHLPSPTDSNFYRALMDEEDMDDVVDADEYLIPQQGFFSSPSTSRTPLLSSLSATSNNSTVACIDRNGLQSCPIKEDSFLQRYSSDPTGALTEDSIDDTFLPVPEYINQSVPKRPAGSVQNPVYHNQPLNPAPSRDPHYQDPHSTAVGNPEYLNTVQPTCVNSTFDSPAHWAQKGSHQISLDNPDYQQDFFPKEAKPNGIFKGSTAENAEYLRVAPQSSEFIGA
Procedure: as §1

[4] = biological target: T4, EGFR (T790M) (Homo sapiens, UniProt P00533, T790M); assay: EGFR Tyrosine Kinase Inhibiting Activity Measurement 1 (ADP-Glo), T790M; format: biochemical; conditions: 1 h incubation with ATP/Poly(Glu, Tyr); >10: <50% enzyme inhibition at 10 μM
T4 construct: purchased Promega V4506
T4 sequence (P00533 25-1210 T790M): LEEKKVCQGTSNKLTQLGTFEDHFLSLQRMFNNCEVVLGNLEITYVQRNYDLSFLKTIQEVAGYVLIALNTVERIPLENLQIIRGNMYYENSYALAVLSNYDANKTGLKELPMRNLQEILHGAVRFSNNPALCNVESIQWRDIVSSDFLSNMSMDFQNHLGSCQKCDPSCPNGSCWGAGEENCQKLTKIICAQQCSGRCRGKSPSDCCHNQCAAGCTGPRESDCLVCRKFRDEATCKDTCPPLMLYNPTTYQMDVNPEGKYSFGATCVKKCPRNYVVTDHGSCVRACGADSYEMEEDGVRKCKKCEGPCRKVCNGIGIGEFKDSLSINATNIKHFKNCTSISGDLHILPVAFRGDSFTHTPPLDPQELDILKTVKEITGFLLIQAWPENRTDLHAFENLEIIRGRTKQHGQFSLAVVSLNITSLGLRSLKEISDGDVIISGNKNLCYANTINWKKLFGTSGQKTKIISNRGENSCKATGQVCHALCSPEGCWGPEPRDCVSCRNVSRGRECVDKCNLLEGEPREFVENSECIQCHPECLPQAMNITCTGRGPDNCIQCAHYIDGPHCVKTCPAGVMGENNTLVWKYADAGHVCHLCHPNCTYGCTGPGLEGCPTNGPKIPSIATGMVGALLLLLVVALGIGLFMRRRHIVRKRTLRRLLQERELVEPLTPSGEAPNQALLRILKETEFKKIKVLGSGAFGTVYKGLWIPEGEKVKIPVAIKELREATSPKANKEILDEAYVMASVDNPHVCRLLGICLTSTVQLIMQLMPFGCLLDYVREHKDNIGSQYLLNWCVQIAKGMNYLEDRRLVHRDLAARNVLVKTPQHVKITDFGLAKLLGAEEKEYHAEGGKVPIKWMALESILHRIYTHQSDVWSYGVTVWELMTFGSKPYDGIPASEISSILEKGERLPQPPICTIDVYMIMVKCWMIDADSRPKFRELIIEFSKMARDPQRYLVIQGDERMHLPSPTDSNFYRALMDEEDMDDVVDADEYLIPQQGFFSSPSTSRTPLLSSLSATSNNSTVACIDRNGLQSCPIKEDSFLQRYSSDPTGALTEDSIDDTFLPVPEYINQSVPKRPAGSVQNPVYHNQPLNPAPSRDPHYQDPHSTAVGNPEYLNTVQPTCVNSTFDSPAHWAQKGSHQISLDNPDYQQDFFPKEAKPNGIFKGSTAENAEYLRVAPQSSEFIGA
Procedure: as §1

[5] = biological target: T5, L858R-mutated EGFR (Homo sapiens, UniProt P00533, L858R); assay: EGFR Tyrosine Kinase Inhibiting Activity Measurement 2, L858R; format: biochemical
T5 construct: purchased Promega V5322
Procedure: as §1, with “minutes.” for “minutes. Furthermore, 20 μL of Kinase Detection Reagent (ADP-Glo™ Kinase Assay, Promega) was added to each well, which then was reacted at room temperature for one hour.”

[6] = biological target: T6, EGFR (T790M, L858R) (Homo sapiens, UniProt P00533, L858R/T790M); assay: EGFR Tyrosine Kinase Inhibiting Activity Measurement 1 (ADP-Glo), DM; format: biochemical; conditions: 1 h incubation with ATP/Poly(Glu, Tyr); >10: <50% enzyme inhibition at 10 μM
T6 construct: purchased Promega V5324
T6 sequence (P00533 25-1210 T790M/L858R): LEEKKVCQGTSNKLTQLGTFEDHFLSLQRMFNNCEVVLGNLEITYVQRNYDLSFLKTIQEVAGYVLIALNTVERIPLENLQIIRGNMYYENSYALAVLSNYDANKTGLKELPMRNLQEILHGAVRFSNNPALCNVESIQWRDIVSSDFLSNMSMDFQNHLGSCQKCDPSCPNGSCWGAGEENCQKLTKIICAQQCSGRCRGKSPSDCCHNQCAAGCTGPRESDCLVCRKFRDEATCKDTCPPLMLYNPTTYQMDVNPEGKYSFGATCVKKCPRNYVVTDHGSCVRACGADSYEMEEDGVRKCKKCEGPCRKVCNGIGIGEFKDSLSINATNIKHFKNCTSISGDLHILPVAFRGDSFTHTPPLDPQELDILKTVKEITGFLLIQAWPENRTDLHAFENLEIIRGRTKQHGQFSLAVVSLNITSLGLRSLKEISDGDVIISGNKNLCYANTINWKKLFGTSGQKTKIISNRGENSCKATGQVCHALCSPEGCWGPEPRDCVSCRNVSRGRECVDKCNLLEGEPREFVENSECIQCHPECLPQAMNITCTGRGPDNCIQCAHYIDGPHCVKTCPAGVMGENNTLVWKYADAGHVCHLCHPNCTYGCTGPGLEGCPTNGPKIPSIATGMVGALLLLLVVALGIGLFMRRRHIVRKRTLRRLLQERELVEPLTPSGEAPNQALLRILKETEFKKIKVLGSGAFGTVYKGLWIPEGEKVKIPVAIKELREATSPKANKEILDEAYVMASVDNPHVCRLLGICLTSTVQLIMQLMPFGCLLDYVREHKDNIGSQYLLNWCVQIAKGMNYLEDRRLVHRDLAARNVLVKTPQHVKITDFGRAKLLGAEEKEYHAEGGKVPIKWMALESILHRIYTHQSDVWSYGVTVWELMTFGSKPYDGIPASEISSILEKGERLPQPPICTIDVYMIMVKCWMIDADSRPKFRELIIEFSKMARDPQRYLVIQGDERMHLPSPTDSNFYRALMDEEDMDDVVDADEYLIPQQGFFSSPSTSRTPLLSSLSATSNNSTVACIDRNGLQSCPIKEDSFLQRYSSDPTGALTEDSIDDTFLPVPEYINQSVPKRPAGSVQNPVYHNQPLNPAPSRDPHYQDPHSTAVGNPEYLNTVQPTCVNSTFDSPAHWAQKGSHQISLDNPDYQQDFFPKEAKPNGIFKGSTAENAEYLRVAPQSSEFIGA
Procedure: as §1

[7] = tested on: H3255 cells (L858R mutation); assay: Cellular Uptake Inhibition Experiment 1 (gefitinib), H3255; format: cell-based, human; conditions: gefitinib 0, 0.5, 1, 2.5 μM, 2 h incubation; FIG. 1
Procedure: (§2) Two types of EGFR mutation-positive human non-small cell lung cancer cells H3255 (L858R mutation) and H1975 (L858R/T790M mutation) were cultured in a DMEM/Ham's F-12 medium (Nacalai Tesque) containing glutamine, antibiotics (penicillin-streptomycin), and 20% fetal bovine serum.
(§3) The binding specificity of H4 to each mutated EGFR-TK was evaluated by a cellular uptake inhibition experiment using H3255 cells, which are L858R mutant cells, and H1975 cells, which are L858R/T790M mutant cells. H3255 and H1975 cells (4×10^5 cells/well) were cultured in a 12-well plate for 48 hours. After the medium was removed, each well was washed with PBS(−) once. Each fetal bovine serum-free DMEM/Ham's F-12 medium with [^18F]H4 (0.15 MBq/mL) and gefitinib (0, 0.5, 1, and 2.5 μM) added thereto was added to each well, which then was incubated in a CO2 incubator for two hours. Each well was washed with 0.1% Tween 80/1% DMSO/PBS(−) three times, and the cells were dissolved with 0.2 N NaOH. The radioactivity of each solution was measured with the gamma counter, and the protein concentration was determined using a BCA Protein Assay Kit (Pierce, Rockford, Ill.) and then the measurement results were analyzed.

[8] = tested on: H3255 tumor (L858R mutation); assay: Biodistribution Experiment (Blocking Experiment), H3255; format: in vivo, mouse; conditions: AZD9291 (17 μg) administered simultaneously, 180 min after administration; FIG. 4
Procedure: At 180 minutes after the administration, they were slaughtered and H3255 tumor tissues were removed. The mass and the accumulated radioactivity were measured, and the amount of accumulation (% dose/g) was calculated from the radioactivity per unit weight. […]

[9] = tested on: H1975 tumor-bearing mouse; assay: PET/CT Imaging 2; format: in vivo; conditions: 180 to 200 min after administration; FIG. 6
Procedure: PET/CT Imaging 2 was carried out in the same manner as in PET/CT Imaging 1 except that a H1975 tumor-bearing mouse was used and the following imaging conditions were employed.
Animal: Balb/c nu/nu mouse, 9 w, male, 20.9 g
Injection dose: 486 μCi/150 μL
(§4) Image acquisition: 180 to 200 min after administration
(§5) Condition of CT: 60 kV, 320 μA

[10] = tested on: H1975 cells (L858R/T790M mutation); assay: Cellular Uptake Inhibition Experiment 2 (AZD9291), H1975; format: cell-based, human; conditions: regardless of AZD9291 (0, 1, 5 μM), 2 h incubation; FIG. 2
Procedure: as §2
(§6) H3255 and H1975 cells (4×10^5 cells/well) were cultured in a 12-well plate for 24 hours. After the medium was removed, each well was washed with PBS(−) once. […] [^18F]H4 (148 kBq/well) was added to each well, which then was incubated in the 5% CO2 incubator at 37° C. for two hours. Each well was washed with 0.1% Tween 80/1% DMSO/PBS(−) three times, and the cells were dissolved with 0.2 N NaOH. The radioactivity of each solution was measured with the gamma counter and the protein concentration was determined using the BCA Protein Assay Kit (Pierce, Rockford, Ill.) and then the measurement results were analyzed.

[11] = tested on: H1975 tumor (L858R/T790M mutation); assay: Biodistribution Experiment (Blocking Experiment), H1975; format: in vivo, mouse; conditions: with or without AZD9291 (17 μg), 180 min after administration; FIG. 4
Procedure: At 180 minutes after the administration, they were slaughtered and H3255 tumor tissues were removed. The mass and the accumulated radioactivity were measured, and the amount of accumulation (% dose/g) was calculated from the radioactivity per unit weight. This was carried out in the same manner as above except that AZD9291 was not administered.
Furthermore, this experiment was carried out in the same manner as above except that H1975 tumor-bearing mice were used.

[12] = tested on: H3255 cells (L858R mutation); assay: Cellular Uptake Inhibition Experiment 2 (AZD9291), H3255; format: cell-based, human; conditions: AZD9291 0, 1, 5 μM pre-incubated 30 min, then 2 h; FIG. 2
Procedure: as §2, §6

[13] = tested on: H1975 cells (L858R/T790M mutation); assay: Cellular Uptake Inhibition Experiment 1 (gefitinib), H1975; format: cell-based, human; conditions: regardless of gefitinib (0, 0.5, 1, 2.5 μM), 2 h incubation; FIG. 1
Procedure: as §2, §3

[14] = tested on: H3255 tumor-bearing mouse; assay: PET/CT Imaging 1; format: in vivo; conditions: 180 to 200 min after tail vein administration; FIG. 5
Procedure: [^18F]H4 (9.8 MBq/150 μL) was administered to a H3255 tumor-bearing mouse through a tail vein. He was anesthetized by inhalation of isoflurane (2.0%) from 175 minutes after the administration and then was imaged for 20 minutes from 180 minutes after the administration using a PET/CT device (FX-3300). Thereafter, CT imaging (60 kV, 320 μA) was carried out. The image reconstruction was carried out using 3D-OSEM.
Animal: Balb/c nu/nu mouse, 10 w, male, 22.2 g
Injection dose: 264 μCi/150 μL
as §4, §5

[15] = tested on: H3255 tumor-bearing mouse; assay: Biodistribution Experiment in tumor-bearing mice; format: in vivo
Procedure: 1×10^7 cells/mouse of H3255 cells suspended in BD Matrigel™ Basement Membrane Matrix was implanted to the right shoulder of a 5-week-old male BALB/c nu/nu mouse (Shimizu Laboratory Supplies), and thereby a tumor-bearing mouse was prepared. They were used for experiments, with the tumor being 1 cm or smaller in diameter.
[^18F]H4 was dissolved in saline containing 0.1% Tween 80 so as to be 6 μCi/100 μL and 100 μL thereof was administered to each tumor-bearing mouse through a tail vein. The mice were decapitated/slaughtered at predetermined time points (30 minutes, 1 hour, 2 hours, and 3 hours after administration). The blood was collected and tissues were removed and then the mass and the accumulated radioactivity were measured. The amount of accumulation (% dose/g) was calculated from the radioactivity per unit weight and the accumulation in the tissues was evaluated. FIG. 3 is a graph showing an example of variations with time of the accumulation of [^18F]H4 in each organ.

[16] = 30 min after tail vein administration, average of 5 mice
[17] = 60 min after tail vein administration, average of 5 mice
[18] = 120 min after tail vein administration, average of 5 mice
[19] = 180 min after tail vein administration, average of 5 mice
[20] = from 30 min to 180 min after administration

- IC50 [3]: 6 nM
SMILES: CNc1cc2c(Nc3cccc(Br)c3)ncnc2cn1 [PD158780, reference compound]

- IC50 [1]: 653 nM
- IC50 [3]: 7210 nM
- binding affinity to the wild-type EGFR (in words) ([3]; comment on Table 1): low binding affinity
- IC50 [4]: > 10000 nM
- IC50 [6]: > 10000 nM
SMILES: FCCOc1cccc(Nc2ncnc3cnc(NCCN4CCOCC4)cc23)c1 [Compound H2, N^4-(3-(2-Fluoroethoxy)phenyl)-N^6-(2-morpholinoethyl)pyrido[3,4-d]pyrimidine-4,6-diamine]

- IC50 [1]: 686 nM
- IC50 [3]: 3750 nM
- IC50 [4]: > 10000 nM
- IC50 [6]: > 10000 nM
SMILES: Fc1ccc(Nc2ncnc3cnc(NCCN4CCOCC4)cc23)cn1 [Compound H3, N^4-(6-Fluoropyridin-3-yl)-N^6-(2-morpholinoethyl)pyrido[3,4-d]pyrimidin-4,6-diamine]

The next lines start with the compound.

SMILES: O=C(/C=C/CN1CCN(CCF)CC1)Nc1cc2c(Nc3cccc(Br)c3)ncnc2cn1 [Compound H4, (E)-N-(4-((3-Bromophenyl)amino)pyrido[3,4-d]pyrimidin-6-yl)-4-(4-(2-fluoroethyl)piperazin-1-yl)but-2-enamide]
- IC50 [1]: 58 nM
- IC50 ([2]; 2 h incubation after ATP and Poly(Glu, Tyr) substrate were added, read-out: EGFR Kinase Inhibition: IC50, L858R/T790M): 326 ± 64 nM
- binding affinity to the L858R/T790M-mutated EGFR (in words) ([2]; comment on Table 2): lower than AZD9291 and was higher than Erlotinib
- IC50 [3]: 49 nM
- IC50 [4]: 409 nM
- IC50 ([5]; 2 h incubation after ATP and Poly(Glu, Tyr) substrate were added, read-out: EGFR Kinase Inhibition: IC50, L858R): 15.6 ± 0.8 nM
- binding affinity to the L858R-mutated EGFR (in words) ([5]; comment on Table 2): relatively high binding affinity
- IC50 [6]: 406 nM

SMILES: FCCNc1cc2c(Nc3cccc(Br)c3)ncnc2cn1 [Compound H1, 4-[(3-Bromophenyl)amino]-6-(2-fluoroethylamino)pyrido[3,4-d]pyrimidine]
- IC50 [1]: 15 nM
- IC50 [3]: 17 nM
- IC50 [4]: 4110 nM
- IC50 [6]: 4020 nM

SMILES: O=C(/C=C/CN1CCN(CC[18F])CC1)Nc1cc2c(Nc3cccc(Br)c3)ncnc2cn1 [[^18F]H4, (E)-N-(4-((3-Bromophenyl)amino)pyrido[3,4-d]pyrimidin-6-yl)-4-(4-(2-[^18F]fluoroethyl)piperazin-1-yl)but-2-enamide]
- uptake of [^18F]H4 into the H3255 cells [7]: inhibited by gefitinib
- reduction in accumulation of [^18F]H4 in the H3255 tumor [8]: 54%
- accumulation in PET/CT image, H1975 implant [9]: no specific accumulation
- uptake of [^18F]H4 into the H1975 cells [10]: approximately 50 % ID/mg protein
- change of accumulation of [^18F]H4 in the H1975 tumor [11]: hardly changed
- uptake of [^18F]H4 into the H3255 cells [12]: inhibited by AZD9291
- uptake of [^18F]H4 into the H1975 cells [13]: approximately 50 % ID/mg protein
- accumulation in PET/CT image, H3255 implant [14]: accumulated specifically in the portion where H3255 was implanted
- Tumor/Blood Ratio [15, 16]: 1.99
- Tumor/Muscle Ratio [15, 16]: 3.47
- Tumor/Blood Ratio [15, 17]: 3.24
- Tumor/Muscle Ratio [15, 17]: 8.89
- Tumor/Blood Ratio [15, 18]: 3.28
- Tumor/Muscle Ratio [15, 18]: 5.75
- Tumor/Blood Ratio [15, 19]: 3.03
- Tumor/Muscle Ratio [15, 19]: 9.29
- Tumor/Blood Ratio [15, 20]: around 3
- Tumor/Muscle Ratio [15, 20]: exceeded 5
- metabolism and excretion (transition from the liver to the intestine) ([15]; tumor-bearing mice, 30 to 180 min after administration, FIG. 3): quickly metabolized and excreted
